From ChEMBL document CHEMBL4823307, “Discovery of benzimidazole derivatives as potent and selective aldehyde dehydrogenase 1A1 (ALDH1A1) inhibitors with glucose consumption improving activity” (Bioorg Med Chem, 2021)
Active and inactive are the calls of the source. The calls are words filed in the database; no cut-off is given here.

Columns and labels:
[1] = biological target: T1, Aldehyde dehydrogenase 1A1 (Homo sapiens) (UniProt P00352); assay: Inhibition of human ALDH1A1 assessed as NADH formation using propionaldehyde as substrate at 10 uM by spectrophotometry
T1 sequence (whole entry): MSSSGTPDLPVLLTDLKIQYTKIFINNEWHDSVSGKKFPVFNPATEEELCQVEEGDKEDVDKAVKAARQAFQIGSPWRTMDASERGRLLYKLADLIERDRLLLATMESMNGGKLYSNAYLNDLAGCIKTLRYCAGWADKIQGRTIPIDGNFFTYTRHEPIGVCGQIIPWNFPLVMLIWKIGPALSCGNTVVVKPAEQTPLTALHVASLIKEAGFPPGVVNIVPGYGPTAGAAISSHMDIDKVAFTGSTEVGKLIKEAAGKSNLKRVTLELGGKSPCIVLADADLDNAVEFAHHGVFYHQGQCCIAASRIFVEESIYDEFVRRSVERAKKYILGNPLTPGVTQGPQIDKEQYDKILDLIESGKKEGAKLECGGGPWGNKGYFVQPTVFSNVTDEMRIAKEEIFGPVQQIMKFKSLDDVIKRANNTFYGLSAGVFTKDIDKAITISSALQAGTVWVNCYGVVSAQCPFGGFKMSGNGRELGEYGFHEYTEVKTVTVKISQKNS

[2] = Cytotoxicity against human HepG2 cells assessed as cell viability at 10 uM incubated for 24 hrs by MTT assay relative to control; type: cell-based; conditions: read-out: Activity
[3] = Cytotoxicity against human HepG2 cells assessed as cell viability at 0.1 uM incubated for 24 hrs by MTT assay relative to control; type: cell-based; conditions: read-out: Activity
HepG2 [4] = assay: Increase in glucose consumption in human HepG2 cells at 10 uM by glucose oxidase assay; type: functional
[5] = Cytotoxicity against human HepG2 cells assessed as cell viability at 1 uM incubated for 24 hrs by MTT assay relative to control; type: cell-based; conditions: read-out: Activity
[6] = biological target: T2, Aldehyde dehydrogenase 1A1 (Homo sapiens, UniProt P00352); assay: Inhibition of human ALDH1A1 assessed as NADH formation using propionaldehyde as substrate by spectrophotometry
T2 sequence (P00352 whole entry): T1 sequence (whole entry)

HepG2 [7] = assay: Cytotoxicity against human HepG2 cells assessed as morphological changes at 0.1 to 10 uM incubated for 24 hrs; type: cell-based; conditions: hepg2, 24 h, dose 0.1-10 µM
[8] = biological target: T3, Retinaldehyde dehydrogenase 3 (Homo sapiens, UniProt P47895); assay: Inhibition of human ALDH1A3 assessed as NADH formation using propionaldehyde as substrate by spectrophotometry
T3 sequence (P47895 whole entry): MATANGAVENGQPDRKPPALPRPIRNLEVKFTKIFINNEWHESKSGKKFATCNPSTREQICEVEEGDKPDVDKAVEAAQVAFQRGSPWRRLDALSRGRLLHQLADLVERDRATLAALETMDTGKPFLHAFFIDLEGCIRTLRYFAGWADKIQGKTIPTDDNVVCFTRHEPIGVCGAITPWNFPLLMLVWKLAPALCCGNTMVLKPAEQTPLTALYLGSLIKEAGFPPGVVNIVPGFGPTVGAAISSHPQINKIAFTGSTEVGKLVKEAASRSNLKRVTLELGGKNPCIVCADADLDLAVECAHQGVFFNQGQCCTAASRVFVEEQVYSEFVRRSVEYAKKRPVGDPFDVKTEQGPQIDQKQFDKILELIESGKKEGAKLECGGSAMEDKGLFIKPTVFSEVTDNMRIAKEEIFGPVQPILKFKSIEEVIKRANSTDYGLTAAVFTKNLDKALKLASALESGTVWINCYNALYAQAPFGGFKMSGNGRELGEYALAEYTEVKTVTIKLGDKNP

Retinal dehydrogenase 2 = biological target: T4, Retinal dehydrogenase 2 (Homo sapiens, UniProt O94788); assay: Inhibition of human ALDH1A2 assessed as NADH formation using propionaldehyde as substrate by spectrophotometry
T4 sequence (O94788 whole entry): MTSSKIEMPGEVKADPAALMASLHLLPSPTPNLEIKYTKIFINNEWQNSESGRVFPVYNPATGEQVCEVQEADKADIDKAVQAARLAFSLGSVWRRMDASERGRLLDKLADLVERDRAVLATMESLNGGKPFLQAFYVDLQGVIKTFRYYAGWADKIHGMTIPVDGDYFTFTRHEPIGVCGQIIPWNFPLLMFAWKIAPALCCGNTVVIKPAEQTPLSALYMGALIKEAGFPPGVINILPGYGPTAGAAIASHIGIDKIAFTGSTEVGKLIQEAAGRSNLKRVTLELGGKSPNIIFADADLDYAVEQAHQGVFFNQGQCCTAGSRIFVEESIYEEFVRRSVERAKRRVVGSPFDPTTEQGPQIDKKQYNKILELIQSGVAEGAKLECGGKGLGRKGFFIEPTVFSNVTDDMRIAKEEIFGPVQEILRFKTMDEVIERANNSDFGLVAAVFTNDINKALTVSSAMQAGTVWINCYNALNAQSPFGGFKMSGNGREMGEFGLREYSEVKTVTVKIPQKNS

[9] = biological target: T5, Aldehyde dehydrogenase, mitochondrial (Homo sapiens, UniProt P05091); assay: Inhibition of human ALDH2 assessed as NADH formation using propionaldehyde as substrate by spectrophotometry
T5 sequence (P05091 whole entry): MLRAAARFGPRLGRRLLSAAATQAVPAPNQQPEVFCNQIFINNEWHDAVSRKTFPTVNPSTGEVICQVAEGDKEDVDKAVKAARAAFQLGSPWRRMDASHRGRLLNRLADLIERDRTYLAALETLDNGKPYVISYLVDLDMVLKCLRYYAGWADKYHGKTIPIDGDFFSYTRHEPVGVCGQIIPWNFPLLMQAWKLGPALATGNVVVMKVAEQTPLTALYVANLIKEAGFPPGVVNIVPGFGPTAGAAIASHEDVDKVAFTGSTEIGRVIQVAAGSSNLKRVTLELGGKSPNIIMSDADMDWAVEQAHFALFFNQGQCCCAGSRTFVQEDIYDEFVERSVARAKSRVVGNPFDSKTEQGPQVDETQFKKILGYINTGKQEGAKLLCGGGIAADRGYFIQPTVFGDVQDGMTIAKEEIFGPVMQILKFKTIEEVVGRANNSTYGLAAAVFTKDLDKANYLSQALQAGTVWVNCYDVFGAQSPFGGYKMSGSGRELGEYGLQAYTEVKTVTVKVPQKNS

Row | inhibition [1] [%] | Compound | also measured
1 | 56.3 | O=C(C1CC1)N1CCN(Cc2nc3ccccc3n2Cc2ccccc2C(F)(F)F)CC1 | 
2 | 55.5 | COc1ccc(C(=O)N2CCN(Cc3nc4ccccc4n3Cc3cccc(C)c3)CC2)cc1 | 
3 | 24.5 | Cc1cccc(Cn2c(CN3CCN(C(=O)c4cccnc4)CC3)nc3ccccc32)c1 | 
4 | 20.8 | CCn1c(CN2CCN(C(=O)C3CC3)CC2)nc2ccccc21 | 
5 |  | CC(C)CCn1c(CN2CCN(C(=O)c3ccco3)CC2)nc2c1c(=O)n(C)c(=O)n2C | viability at 24 h, 10 µM [2]: 98.2%; viability at 24 h, 0.1 µM [3]: 100%; Activity (HepG2 [4]): inactive; viability at 24 h, 1 µM [5]: 100%
6 | 51.5 | Cc1ccc(Cn2c(CN3CCN(C(=O)C4CC4)CC3)nc3ccccc32)cc1 | 
7 | 67.5 | Cc1cccc(Cn2c(CN3CCN(C(=O)C4CCCC4)CC3)nc3ccccc32)c1 | 
8 | 23.2 | Cc1cccc(Cn2c(CN3CCN(C(=O)c4ccc(Cl)cc4)CC3)nc3ccccc32)c1 | 
9 | 27.1 | Cc1cccc(Cn2c(CN3CCN(C(=O)c4ccc(F)cc4)CC3)nc3ccccc32)c1 | 
10 | 21.2 | O=C(C1CC1)N1CCN(Cc2nc3ccccc3n2CC2CC2)CC1 | 
11 | 60.8 | Cc1cccc(Cn2c(CN3CCN(C(=O)c4cccs4)CC3)nc3ccccc32)c1 | 
12 | 71.4 | Cc1cccc(Cn2c(CN3CCN(C(=O)CC(C)C)CC3)nc3ccccc32)c1 | 
13 | 69.1 | Cc1cccc(Cn2c(CN3CCN(C(=O)C4CCC4)CC3)nc3ccccc32)c1 | 
14 | 29.1 | Cc1ccccc1Cn1c(CN2CCN(C(=O)C3CC3)CC2)nc2ccccc21 | 
15 | 32.7 | O=C(C1CC1)N1CCN(Cc2nc3ccccc3n2Cc2ccc(F)cc2)CC1 | 
16 | 70.3 | CC(=O)N1CCN(Cc2nc3ccccc3n2Cc2cccc(C)c2)CC1 | 
17 | 44.4 | COc1cccc(Cn2c(CN3CCN(C(=O)C4CC4)CC3)nc3ccccc32)c1 | 
18 | 37 | O=C(C1CC1)N1CCN(Cc2nc3ccccc3n2Cc2ccc(C(F)(F)F)cc2)CC1 | 
19 | 73.2 | Cc1cccc(Cn2c(CN3CCN(C(=O)c4ccco4)CC3)nc3ccccc32)c1 | 
20 | 18.2 | CCCCn1c(CN2CCN(C(=O)C3CC3)CC2)nc2ccccc21 | 
21 | 20.6 | Cc1cccc(Cn2c(CN3CCN(C(=O)c4ccncc4)CC3)nc3ccccc32)c1 | 
22 | 68.3 | Cc1cccc(Cn2c(OC3CCN(C(=O)c4ccco4)CC3)nc3ccccc32)c1 | 
23 | 30.8 | CC(C)CCn1c(OC2CCN(C(=O)c3ccco3)CC2)nc2ccccc21 | 
24 | 10.8 | CC(C)CCn1c(NC2CCN(C(=O)C3CC3)CC2)nc2ccccc21 | 

Row | inhibition [1] [%] | Compound | also measured
25 | 42.1 | CC(C)CCn1c(CN2CCN(C(=O)c3ccco3)CC2)nc2ccccc21 | 
26 | 31.9 | Cc1cccc(Cn2c(CN3CCN(C(=O)C4CCCCC4)CC3)nc3ccccc32)c1 | 
27 | 56.6 | O=C(C1CC1)N1CCN(Cc2nc3ccccc3n2Cc2ccc(Cl)cc2)CC1 | 
28 | 27.9 | Cc1cccc(Cn2c(NC3CCN(C(=O)c4ccco4)CC3)nc3ccccc32)c1 | 
29 | 85.1 | CCC(=O)N1CCN(Cc2nc3ccccc3n2Cc2cccc(C)c2)CC1 | viability at 24 h, 10 µM [2]: 85.4%; viability at 24 h, 0.1 µM [3]: 89.7%; IC50 [6]: 626 nM; Activity (HepG2 [7]): Non-Toxic; IC50 [8]: 1680 nM; IC50 (Retinal dehydrogenase 2): 2090 nM; Activity (HepG2 [4]): 15%; IC50 [9]: 3230 nM; viability at 24 h, 1 µM [5]: 91.8%
30 | 25.8 | Cc1cccc(Cn2c(CN3CCN(C(=O)c4ccc(Br)cc4)CC3)nc3ccccc32)c1 | 
31 | 20.8 | Cc1cccc(Cn2c(CN3CCN(C(=O)c4ccc(C#N)cc4)CC3)nc3ccccc32)c1 | 
32 | 22.9 | Cc1cccc(Cn2c(CN3CCN(C(=O)c4ccc(C(F)(F)F)cc4)CC3)nc3ccccc32)c1 | 
33 | 24.3 | Cc1cccc(Cn2c(CN3CCN(C(=O)c4ccc([N+](=O)[O-])cc4)CC3)nc3ccccc32)c1 | 
34 | 23.9 | O=C(C1CC1)N1CCN(Cc2nc3ccccc3n2Cc2ccccc2)CC1 | 
35 | 27.1 | O=C(C1CC1)N1CCN(Cc2nc3ccccc3n2Cc2cccc(F)c2)CC1 | 
36 | 79 | CCCC(=O)N1CCN(Cc2nc3ccccc3n2Cc2cccc(C)c2)CC1 | 
37 | 70 | CC(C)CCn1c(CN2CCN(C(=O)C3CC3)CC2)nc2ccccc21 | 
38 | 49.1 | Cc1cccc(Cn2c(NC3CCN(C(=O)C4CC4)CC3)nc3ccccc32)c1 | 
39 | 67 | CCc1ccc(C(=O)N2CCN(Cc3nc4ccccc4n3Cc3cccc(C)c3)CC2)cc1 | 
40 | 64.9 | Cc1ccc(C(=O)N2CCN(Cc3nc4ccccc4n3Cc3cccc(C)c3)CC2)cc1 | 
41 | 60.9 | Cc1cccc(Cn2c(CN3CCN(C(=O)c4ccccc4)CC3)nc3ccccc32)c1 | 
42 | 13.1 | CC(C)Cn1c(CN2CCN(C(=O)C3CC3)CC2)nc2ccccc21 | 
43 | 56.4 | CC(C)CCn1c(OC2CCN(C(=O)C3CC3)CC2)nc2ccccc21 | 
44 | 40.7 | O=C(C1CC1)N1CCN(Cc2nc3ccccc3n2Cc2ccccc2F)CC1 | 
45 | 67.6 | Cc1cccc(Cn2c(CN3CCN(C(=O)c4ccc(C(C)C)cc4)CC3)nc3ccccc32)c1 | 
46 | 44.5 | O=C(C1CC1)N1CCN(Cc2nc3ccccc3n2CC2CCCC2)CC1 | 
47 | 87.2 | Cc1cccc(Cn2c(CN3CCN(C(=O)C(C)C)CC3)nc3ccccc32)c1 | viability at 24 h, 10 µM [2]: 85.7%; viability at 24 h, 0.1 µM [3]: 98.4%; IC50 [6]: 458 nM; Activity (HepG2 [7]): Non-Toxic; IC50 [8]: 2880 nM; IC50 (Retinal dehydrogenase 2): 2780 nM; Activity (HepG2 [4]): 20%; IC50 [9]: 2270 nM; viability at 24 h, 1 µM [5]: 93.7%
48 | 80.6 | Cc1cccc(Cn2c(OC3CCN(C(=O)C4CC4)CC3)nc3ccccc32)c1 | 
